# Laboratory results taken from patent US20110082087A1, “COMPOUNDS FOR TREATING PAIN” (Edificio ICAT, priority 2008, published 2011).
# Key:
# [1] = Plasma serum stability of analogues; format: in vitro ADME; details: Human Serum, 1-hour incubation, read-out: Mean Parent Remaining (%); for remaining at 1 h, 400 uM: test concentration 400 uM; for remaining at 1 h, 800 uM: test concentration 800 uM
# Protocol: These analogues were tested for plasma serum stability, in comparison with KTP-NH2.
# rats (Wister, male) [2] = test: Increasing-temperature Hot Plate test; format: in vivo, rat; details: i.p.; rat
# Protocol: (§1) In vivo behavioural anti-nociception tests were carried out in rats (Wister, male). Unless otherwise stated, compounds were administered by intra-peritoneal (i.p.) injection. For most assays, the Tail Flick and the Hot Plate tests were used.
# The hot-plate test (Eddy N. B and Leimbach D. 1953. Synthetic analgesics II. Dithienylbutenyl and dithienylbutylamines J. Pharmacol. Exp. Ther. 45: 339) evaluates a supraspinally integrated response in the form of thermal pain reflexes due to footpad contact with a heated surface. During the experiments, the animal is confined in a removable clear acrylic compartment where the latency time to the first hind paw or/and jumping responses are measured. […] The response is the licking of the hindpaw, and the corresponding plate temperature represents the recorded nociceptive end-point. The advantage of Increasing-Temperature Hot-Plate test over the standard constant-temperature hot-plate test is the higher sensitivity and the lack of influences of pre-exposure to the hot-plate before testing. Animal reaction temperature is a measurement of animal resistance to pain and is used to measure efficacy of analgesics.
# rats (Wister, male) [3] = test: Tail Flick test; format: in vivo, rat; details: i.p.; rat
# Protocol: as §1
# The tail-flick test (D'Amour F. E., Smith D. L. 1941. A method for determining the loss of pain sensation. J Pharmacol Exp Ther 1941; 72:74-79) is a standard investigative tool for pain and analgesia assessment in rodents. It is based on a spinal reflex response of the tail to radiant heat. Pain sensitivity in rats was measured as they responded to the application of radiant heat to a small area of their tails. The rat's tail was placed over a window located on a platform and subjected to irradiation by an intense light beam (10 W). When the rat feels discomfort, it flicks its tail which automatically stops the timer. The reaction time from activation of the light beam to the tail flick is automatically presented on a digital display. A cut-off time of 24 s was applied. Animal reaction time is a measurement of animal resistance to pain and is used to measure efficacy of analgesics.
# rats = test: Comparison with morphine, behavioural nociception tests and behaviour observation; format: in vivo, rat; details: rats; i.p.
# Protocol: as §1
# The analgesic potential of KTP-NH2 was also verified by comparison with well-known, widely-used analgesic molecules: ibuprofen and morphine.
# From FIG. 12 it is possible to observe that the efficacy of 3 mg/100 g of KTP-NH2 is similar to that observed with 0.5 mg/100 g dose of morphine.
# [4] = Partition into lipid bilayer vesicles (fluorescence titration); format: physicochemical; details: mammal-mimetic lipid bilayer vesicle; numerical treatment of fluorescence titration
# Source text: We performed biophysical studies using fluorescent methodologies in order to characterize the interaction of KTP-NH2 with liposomes representing human cell membranes (Santos N. C., Prieto M. and Castanho M. A. 2003. Quantifying molecular partition into model systems of biomembranes: an emphasis on optical spectroscopic methods. Biochim Biophys Acta 1612: 123-135.). A clear interaction of KTP-NH2 with the lipid bilayers was observed. […] When titrated with a mammal-mimetic lipid bilayer vesicle (circles), the fluorescence intensity of the phenolic moiety increases due to insertion in the apolar environment created by the lipids. The POPC system mimetizes the external layer of human cell membranes, whereas POPG lipidic mixture mimetizes the internal layer of human cell membranes.
# In order to confirm that these plasma-stable KTP-NH2 derivatives maintained their lipophilicity, their potential interaction with human cell membranes was assessed. Again, we performed biophysical studies using fluorescent methodologies (Santos N. C., Prieto M. and Castanho M. A. 2003. Quantifying molecular partition into model systems of biomembranes: an emphasis on optical spectroscopic methods. Biochim Biophys Acta 1612: 123-135.).
molecule,measurement,setting,value
"N=C(N)NCCC[C@@H](NC(=O)[C@H](N)Cc1ccc(O)cc1)C(N)=O [D-Tyr-D-Arg-NH2, D-Tyrosyl-D-Arginine-NH2]","remaining at 1 h, 400 uM",[1],98.4%
"N=C(N)NCCC[C@H](NC(=O)[C@H](N)Cc1ccc(O)cc1)C(N)=O [D-Tyr-L-Arg-NH2, D-Tyrosyl-L-Arginine-NH2]","remaining at 1 h, 400 uM",[1],98%
"CC(C)Cc1ccc(C(C)C(=O)N[C@H](Cc2ccc(O)cc2)C(=O)N[C@@H](CCCNC(=N)N)C(N)=O)cc1 (stereo partly drawn) [Ibu-D-Tyr-L-Arg-NH2, Ibuprofen-D-Tyrosyl-L-Arginine-NH2]","remaining at 1 h, 800 uM",[1],94.1%
"CC(C)Cc1ccc([C@H](C)C(=O)N[C@@H](Cc2ccc(O)cc2)C(=O)N[C@@H](CCCNC(=N)N)C(N)=O)cc1 [Ibu-KTP-NH2, Ibuprofen-L-Tyrosyl-L-Arginine-NH2]","remaining at 1 h, 800 uM",[1],51.4%
"N=C(N)NCCC[C@H](NC(=O)[C@@H](N)Cc1ccc(O)cc1)C(=O)O [KTP, L-Tyrosyl-L-Arginine, reference compound]",effect in hot plate test,"rats (Wister, male) [2]",very small effect
same,effect on tail flick latency,"rats (Wister, male) [3]",very small effect
"N=C(N)NCCC[C@@H](NC(=O)[C@@H](N)Cc1ccc(O)cc1)C(N)=O [L-Tyr-D-Arg-NH2, L-Tyrosyl-D-Arginine-NH2]","remaining at 1 h, 400 uM",[1],78.8%
"CN[C@@H](Cc1ccc(O)cc1)C(=O)N[C@H](CCCNC(=N)N)C(N)=O [Me-L-Tyr-D-Arg-NH2, Methyl-L-Tyrosyl-D-Arginine-NH2]","remaining at 1 h, 400 uM",[1],98.5%
"CN[C@@H](Cc1ccc(O)cc1)C(=O)N[C@@H](CCCNC(=N)N)C(N)=O [Me-L-Tyr-L-Arg-NH2, Methyl-L-Tyrosyl-L-Arginine-NH2]","remaining at 1 h, 400 uM",[1],89%
"CN1CC[C@]23c4c5ccc(O)c4O[C@H]2[C@@H](O)C=C[C@H]3[C@H]1C5 [morphine, reference compound]",alterations in behavior (secondary effects),rats,"several alterations in behavior, like scratching"
Ibuprofen-L-Tyrosyl-L-Arginine-OH [Ibu-KTP],local concentration in the model membrane of mammals relative to surrounding bulk aqueous phase,[4],~333 fold
